#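 In this assay, cells in 96-well plates receive the compound at five concentrations for 48 hours. Endpoints are linearly interpolated between the surrounding concentrations. GI50 = concentration required for 50% inhibition of growth. TGI: total growth inhibition.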
# Key:
# Assay in all cases: NCI tumour cell line growth inhibition, 48 h
# [1] = tested on: SNB-78 CNS
# [2] = tested on: DMS 114 small cell lung
# [3] = tested on: DMS 273 small cell lung
# [4] = tested on: LXFL 529 NSCLC
# [5] = tested on: KM20L2 colon
# [6] = tested on: HOP-18 NSCLC
# [7] = tested on: RXF-631 renal
# [8] = tested on: XF 498 CNS
# [9] = tested on: SN12K1 renal
# [10] = tested on: P388 leukemia
# [11] = tested on: P388/ADR leukemia
SMILES,TGI [1] [µM],TGI [2] [µM],TGI [3] [µM],TGI [4] [µM],TGI [5] [µM],TGI [6] [µM],TGI [7] [µM],TGI [8] [µM],TGI [9] [µM],TGI [10] [µM],TGI [11] [µM],GI50 [1] [µM],GI50 [5] [µM]
CCOC(=O)/C=C1/C(CCCOCc2ccccc2)C2CCCC23CC2(CCN13)OCCO2 (configuration not stated),85.8,32.9,37.9,90.2,56,50,94.6,26.8,–,–,–,–,–
COc1ccc(CC(N)=O)cc1OC,> 1250,> 1250,> 1250,–,> 1250,> 1250,–,> 1250,> 1250,> 1250,> 1250,–,–
CN1Cc2c(nc(-c3ccccc3)c[n+]2[O-])N(C)C1,> 100,> 100,> 100,> 100,> 100,> 100,> 100,> 100,–,–,–,–,–
CCOC(=O)CNC(=O)NC12CC3CC(CC(C3)C1)C2,> 520,> 511,> 550,–,> 550,537,–,246,503,430,> 550,–,–
O=C(NN1C(=O)CS(=O)(=O)C1c1ccc(C(F)(F)F)cc1)c1ccncc1 (configuration not stated),> 100,> 100,> 100,> 100,–,> 100,–,> 100,–,–,–,–,–
O=C(NCCCl)O/N=C/c1cccnc1,> 100,> 100,> 100,–,> 100,> 100,–,> 100,> 100,–,> 100,> 100,> 100
O[C@H]1[C@H](O)[C@@H](O)CN2CC[C@H](O)[C@H]12,> 100,> 100,> 100,–,> 100,> 100,–,> 100,> 100,> 100,> 100,–,–
C=C(CN(C)C)C(=O)c1ccc(C(=O)C(=C)CN(C)C)cc1,–,–,–,> 100,> 100,> 100,–,> 100,–,–,–,–,–
COc1cc(C2c3cc4c(cc3[C@@H](Nc3ccccc3)C3COC(=O)[C@H]23)OCO4)cc(OC)c1O (some centres not stated),> 91,3.42,3.35,–,> 23.3,22.6,–,7.84,8.65,2.35,4.59,–,–
